Experimental data as given in patent US20080269317A1, “Compounds for Covalent Binding to MD-2 and Effect on the Immune Response” (priority 2005, published 2008).

Assays:
[1] = system: MonoMac6 cells; test: Activation of MonoMac6 cells without LPS, monitored through secreted TNF-alpha (ELISA); assay type: cell-based, human; settings: different concentrations of IAANS, no LPS; supernatant after 20 hours
Source text: The activation of the host innate immune system can have an important role for the treatment of diseases such as microbial infections, cancer and other diseases, where the participation of the innate immunity system is important. It is important that the compound, which activates the innate immune system has no other effects. If the compound activates the cells of the innate immunity, the same cytokines are secreted as by the activation with LPS, so the same assay can be used. For the assay we have used human monocytic cells MonoMac6. Into the 96-well plate we seeded 1×10^5 cells per well in the media for MonoMac6 cells. We added 50 ng/ml of phorbol 12-myristate […] (Sigma), which is needed for differentiation of cells into macrophages. Then we added different concentrations of IAANS and incubated. 20 hours after the stimulation we took the cell supernatants, centrifuged for 3 min at 13 000 rpm and performed ELISA test for TNF-alpha.
To MonoMac6 cells we added different concentrations of IAANS. […] Cells secreted TNF-alpha, which stimulates the innate immune response, which is important for the acquired immunity at vaccination or treatment of disease such as cancer, where the activation of host immune response is desirable. […]

[2] = system: MonoMac6 cells; test: Inhibition of TNF-alpha synthesis (ELISA) in MonoMac6 cells stimulated with LPS; assay type: cell-based, human; settings: different concentrations of IAANS, 1 hour, then 20 ng/ml LPS; supernatant after 20 hours
Source text: The effect of certain compound on the cell activation by LPS can also be detected by determination of the amount of cytokines, which are released by the cell activation. Addition of LPS to macrophage cells (or other cells, which normally express MD-2 and TLR4) causes the secretion of inflammatory cytokines such as TNF-alpha, IL-1, IL-8 . . . […] The amount of cytokines released into the media can be determined by the ELISA test. For the experiment we used monocytic cells MonoMac6. To 96-well plate we seeded 1×10^5 cells per well in media for MonoMac6 cells (RPMI with 10% FBS, nonessential aminoacids and OPI (both from Sigma)). 50 ng/ml of phorbol 12-myristate […] (Sigma) needed for differentiation into macrophages was added to cells. IAANS was added at different concentrations and incubated 1 hour, followed by the addition of 20 ng/ml LPS. 20 hours after the stimulation we took the supernatant, centrifuged it for 3 min on 13 000 rpm and performed the ELISA test for TNF-alpha.
To MonoMac6 cells, which express MD-2 and TLR4, we added different concentrations of IAANS and LPS and determined the concentration of TNF-alpha in media using the ELISA test.

[3] = molecular target: T1, MD-2 (Homo sapiens, UniProt Q9Y6Y9); test: Binding to MD-2 monitored through the increase of the fluorescence (spectrofluorimeter); settings: 100 nM MD-2 added to 200 nM compound in milliQ water, 25° C., time dependent
T1 construct: made in house; host or cells: Escherichia coli
T1 sequence (Q9Y6Y9 19-160): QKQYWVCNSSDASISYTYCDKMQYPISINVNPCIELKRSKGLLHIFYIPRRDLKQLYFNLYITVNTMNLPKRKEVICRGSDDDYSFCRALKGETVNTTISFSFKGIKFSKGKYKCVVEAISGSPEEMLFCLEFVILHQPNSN
Source text: In the first example of the invention we used recombinant MD-2 produced in bacteria Escherichia coli to test the binding of the compounds, which contain a hydrophobic group and a group, which binds to the cysteine residue. This protein has biological activity as endogenous MD-2 and added protein enables response to LPS to cells lacking endogenous MD-2. We tested binding of compounds 2-(4′-(iodoacetamido)anilino)naphthalene-6-sulfonic acid (IAANS) and N-(1-pyrene)maleimide, which in addition to the above mentioned properties also have the additional feature of fluorescence, which makes them useful to show the principle of the invention. […] Change of the environment, which is a result of binding of the compound into the hydrophobic pocket, causes an increase of the fluorescence intensity of compounds, which is detected by measuring the emission fluorescence spectra using the spectrofluorimeter. […]
IAANS (Molecular Probes, USA) is an example of a compound with an alkylhalide group, which is reactive with a thiol group, an anilinonaphthalene group as a hydrophobic group and a sulfonic group as an anionic group. […] IAANS concentration was determined by measuring the absorbance at 326 nm in methanol (extinction coefficient at 326 nm in methanol is 27 000 cm^−1M^−1). […] Binding to MD-2 increases the fluorescence intensities of both compounds. […]

[4] = molecular target: T1, MD-2; test: Covalent binding to MD-2: fluorescence after GdnHCl denaturation and acetone precipitation, with or without iodoacetamide blocking
Protocol: In the second example of the invention we show, that binding of the compound to MD-2 is irreversible, therefore after binding to MD-2, compound remains permanently bound to the protein and therefore prevent binding of LPS or other ligands to MD-2.
The compounds with features mentioned above covalently bind to MD-2. The binding experiment was performed by adding to the concentration of MD-2 two times concentration excess of N-(1-pyrene) maleimide and incubated one hour at room temperature in the dark. The compound, which nonspecifically (noncovalently) bound to MD-2 was released from the protein by denaturation of the protein in 6 M guanidinium hydrochloride (GdnHCl). To the dissolved denatured protein we added five volumes of chilled (−20° C.) acetone and incubated for additional 60 min at −20° C. Then we centrifuged for 10 min at 13 000 rpm. […] The precipitate was dissolved in […] of 6 M GdnHCl and fluorescence emission spectrum was measured with excitation at 338 nm (FIG. 2). […] Binding of iodoacetamide inhibited binding of a compound to free cysteine residue on MD-2, which can be detected by lower fluorescence intensity of the compound.
We compared the fluorescence of MD-2, incubated with N-(1-pyrene) maleimide and to MD-2, with said compound, where we have previously added iodoacetamide for blocking free cysteine residues.

Structure (SMILES) | activation of MonoMac6 cells (secreted TNF-alpha) [1] | inhibition of LPS dependent synthesis of TNF-alpha [2] | change of the fluorescence intensity at emission maximum after addition of MD-2 [3] | covalent (irreversible) binding to MD-2: emission spectrum preserved in 6 M GdnHCl ([4]; two times excess of compound, one hour at room temperature, denaturation in 6 M GdnHCl, acetone precipitation, excitation 338 nm) | effect of previous incubation with iodoacetamide on binding of N-(1-pyrene) maleimide to MD-2 ([4]; five molar excess of iodoacetamide added beforehand to block free cysteine residues)
O=C(CI)Nc1ccc(Nc2ccc3cc(S(=O)(=O)O)ccc3c2)cc1 [IAANS, 2-(4′-(iodoacetamido)anilino)naphthalene-6-sulfonic acid] | activated the cells in the concentration dependent manner | inhibited LPS dependent synthesis of TNF-alpha in a concentration-dependent manner | increase of the IAANS fluorescence after binding to MD-2 |  | 
O=C1C=CC(=O)N1c1ccc2ccc3cccc4ccc1c2c34 [N-(1-pyrene) maleimide, N-(1-pyrene)maleimide] |  |  | increase of the N-(1-pyrene) maleimide fluorescence after binding to MD-2 | irreversibly bound to MD-2 | 
NC(=O)CI [iodoacetamide, reference compound] |  |  |  |  | inhibited binding of N-(1-pyrene) maleimide to MD-2
